Experimental data reported in US5179082A, “Method for blocking platelet adhesion to collagen” (Merck & Co., Inc., priority 1991, dated 1993).
Read-outs that look alike come from different tables or passages of the source. Positions of bridges follow the written chain, without caps; N, C: chain ends. No end group written: not given here.

Tests used:
[1] = system: platelet adhesion to fibrinogen; assay: Inhibition of platelet adhesion to fibrinogen-coated plates; type: cell-based; set-up: Percent Inhibition of Adhesion, Fibrinogen, Extent: dose or concentration left out as unconfirmed; conditions: for IC50: fibrinogen-coated plates
Protocol: (§1) Polystyrene 96-well microtiter plates (Costar, Cambridge, MA) are coated with […] per well of […] collagen dissolved in 5 mM acetic acid for 1 hour at room temperature followed by blocking of the non-specific cell binding sites by addition of […] of 10 mg/ml heat-denatured BSA for 1 hour. Control wells are coated with BSA only. The wells are rinsed three times with HEPES buffered saline (HBS) containing 20 mM HEPES, pH 7.4, 0.14 M NaCl, and 2 mM MgCl2. […] of washed platelets are incubated with various concentrations of polypeptide I or buffer as a control for 5 minutes at room temperature and then added to each collagen coated well and incubated at room temperature for 45 minutes. Nonadherent platelets are removed by aspiration, and the wells are rinsed three times with […] of HBS. The number of adhered platelets is determined by protein assay, using the BCA reagent and measuring the absorbance of each well at […].
(§2) Sequence ID Nos. I, II, III, IV and V were evaluated for their ability to block platelet adhesion to collagen using the assay described in Example 2 to determine inhibition of platelet adhesion to collagen. An assay similar to the assay described in Example 2, with the exception that plates are coated with fibrinogen rather than collagen, for determining inhibition of platelet binding to fibrinogen.

[2] = system: platelet adhesion to collagen; assay: Inhibition of platelet adhesion to collagen-coated microtiter wells; type: cell-based
Protocol: as §1, §2

[3] = Preliminary in vivo antithrombotic studies
[4] = system: ADP-stimulated platelet aggregation; assay: Inhibition of ADP-stimulated platelet aggregation; type: cell-based; conditions: Table 1
[5] = molecular target: fibrinogen receptor glycoprotein IIb/IIIa

Substance | Percent Inhibition of Adhesion, Fibrinogen, Extent ([1]; Table 1, concentration not given) [%] | IC50 ([1]; Table 1) [nM] | Inhibition of platelet adhesion to collagen (in words) [2] | Percent Inhibition of Adhesion, Collagen, Extent ([2]; Table 1) [%] | Decrease of control A562 values (adhered platelets) ([2]; concentration dependent, control A562 0.3 to 1.0 O.D.) | Antithrombotic effect in vivo [3] | IC50 [4] [nM] | Percent inhibition of adhesion to fibrinogen, Extent [5] [%] | Percent inhibition of adhesion to collagen, Extent (washed platelets) [%] | Percent Inhibition of Adhesion, Fibrinogen, Extent [1] [%] | IC50 ([2]; Table 1, collagen-coated wells, washed platelets) [nM] | Specificity for platelet adhesion to collagen (versus fibrinogen) ([2]; comparison of Table 1 values)
H-ECESGPCCRNCKFLKEGTICKRARGDDMDDYCNGKTCDCPRNPHKGPAT-OH (disulfide 2-11, 7-32, 8-37, 20-39 (inferred)) [Polypeptide I, echistatin] | 95 | 270 | inhibit platelet adhesion to collagen | 50 | up to 50% | very effective antithrombotic agent | 30 | – | – | – | – | –
polypeptide I (Sequence ID No. 1), synthetic echistatin | – | – | – | – | – | – | – | 95 | 50 | – | – | –
Polypeptide V: NH2 (Ch) Ala Arg Gly Asp (Cy) Z, Z = NH2; 39 amino acids, terminal amino group at Cys 39 (ECESGPCCRNCKFLKEGTICKRARGDDMDDYCNGKTCDC-NH2; not fully specified (bridges); also: terminal modifications Ch, Cy, terminal amino group at Cys 39) | – | > 8000 | – | 58 | – | – | 800 | – | – | 55 | 530 | most specific for platelet adhesion to collagen
